From ChEMBL document CHEMBL2074433, “Specificity of doxorubicin versus rhodamine-123 in assessing P-glycoprotein functionality in the LLC-PK1, LLC-PK1:MDR1 and Caco-2 cell lines” (Eur J Pharm Sci, 2000) come the findings set out here.

The target in the series is ATP-dependent translocase ABCB1 (Homo sapiens, UniProt P08183). Briefly: TP_TRANSPORTER: inhibition of Doxorubicin transepithelial transport (basal to apical) (Doxorubicin: 3 uM, Quinidine: 50 uM) in MDR1-expressing LLC-PK1 cells. The following applies: pig, llc-pk1, 50 µM. Type of series: functional, cell-based.
Chain of ATP-dependent translocase ABCB1 (P08183 whole entry): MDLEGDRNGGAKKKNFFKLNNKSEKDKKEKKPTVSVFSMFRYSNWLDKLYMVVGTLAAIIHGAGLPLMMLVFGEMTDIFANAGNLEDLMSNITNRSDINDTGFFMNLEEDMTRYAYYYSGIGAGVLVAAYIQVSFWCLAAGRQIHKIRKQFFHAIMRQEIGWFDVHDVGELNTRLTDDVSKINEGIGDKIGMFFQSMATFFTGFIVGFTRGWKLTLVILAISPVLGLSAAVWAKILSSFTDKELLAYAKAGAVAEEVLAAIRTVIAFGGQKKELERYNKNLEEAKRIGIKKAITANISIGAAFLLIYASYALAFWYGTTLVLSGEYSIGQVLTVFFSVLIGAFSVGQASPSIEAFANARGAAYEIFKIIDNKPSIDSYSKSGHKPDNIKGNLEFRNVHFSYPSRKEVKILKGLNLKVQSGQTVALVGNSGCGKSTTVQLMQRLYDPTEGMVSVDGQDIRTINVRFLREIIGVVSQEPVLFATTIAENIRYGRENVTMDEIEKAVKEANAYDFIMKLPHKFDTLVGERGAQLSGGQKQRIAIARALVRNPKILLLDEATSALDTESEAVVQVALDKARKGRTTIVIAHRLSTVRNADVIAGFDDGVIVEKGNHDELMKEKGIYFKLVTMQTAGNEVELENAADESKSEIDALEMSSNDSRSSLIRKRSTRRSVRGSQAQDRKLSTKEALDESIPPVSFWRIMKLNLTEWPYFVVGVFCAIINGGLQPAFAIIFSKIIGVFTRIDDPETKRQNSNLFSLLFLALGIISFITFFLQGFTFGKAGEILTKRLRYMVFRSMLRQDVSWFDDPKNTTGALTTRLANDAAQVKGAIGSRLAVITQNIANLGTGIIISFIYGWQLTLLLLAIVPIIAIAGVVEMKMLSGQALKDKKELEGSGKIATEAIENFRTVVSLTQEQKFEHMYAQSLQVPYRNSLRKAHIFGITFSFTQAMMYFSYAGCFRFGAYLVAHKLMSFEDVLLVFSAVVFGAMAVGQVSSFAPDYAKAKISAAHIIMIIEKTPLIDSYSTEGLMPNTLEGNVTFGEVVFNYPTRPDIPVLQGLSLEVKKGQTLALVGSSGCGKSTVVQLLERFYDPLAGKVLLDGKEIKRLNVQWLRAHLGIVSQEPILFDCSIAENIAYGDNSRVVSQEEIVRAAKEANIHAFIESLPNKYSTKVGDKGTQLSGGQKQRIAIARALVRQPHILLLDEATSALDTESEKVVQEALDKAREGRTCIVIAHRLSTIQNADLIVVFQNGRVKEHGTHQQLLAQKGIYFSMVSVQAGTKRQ

`C=C[C@H]1C[N@@]2CC[C@H]1C[C@H]2[C@H](O)c1ccnc2ccc(OC)cc12` [QUININE]: the Activity entry is “is not an inhibitor [-]”.
